Reference: the NIST ThermoML archive (doi:10.1021/je1006482)

What was measured:
[1] = 101.33 kPa, Liquid
[2] = excess molar enthalpy (molar enthalpy of mixing); xn = mol fraction of the nth substance listed; conditions: 101.3 kPa, Liquid, Flow calorimetry

COC(=O)CC(C)=O [methyl 3-oxobutanoate]
[1]
Conditions	mass density [kg/m3]
288.2 K	1081.93
298.2 K	1071.18
313.2 K	1055.01
328.2 K	1038.78
338.2 K	1027.89
348.2 K	1016.95

COC(=O)CC(C)=O [methyl 3-oxobutanoate] + CC(C)O
excess molar enthalpy [kJ/mol], [2]
Conditions	288.2 K	298.2 K	313.2 K	328.2 K
x1 = 0.1002	0.956	1.05	1.14	1.19
x1 = 0.2005	1.46	1.65	1.85	1.96
x1 = 0.2998	1.77	2.01	2.27	2.41
x1 = 0.35	1.87	2.11	2.38	2.53
x1 = 0.4004	1.93	2.2	2.47	2.65
x1 = 0.4493	1.98	2.24	2.51	2.67
x1 = 0.4998	1.99	2.24	2.5	2.65
x1 = 0.5504	1.98	2.22	2.46	2.59
x1 = 0.6008	1.94	2.17	2.37	2.48
x1 = 0.6492	1.86	2.07	2.24	2.34
x1 = 0.6991	1.75	1.93	2.06	2.13
x1 = 0.7997	1.41	1.51	1.57	1.6
x1 = 0.9002	0.81	0.86	0.859	0.881

COC(=O)CC(C)=O [methyl 3-oxobutanoate] + CCCO
excess molar enthalpy [kJ/mol], [2]
Conditions	288.2 K	298.2 K	313.2 K	328.2 K
x1 = 0.0994	0.824	0.918	1.02	1.1
x1 = 0.1995	1.3	1.47	1.67	1.81
x1 = 0.2993	1.59	1.8	2.07	2.25
x1 = 0.3492	1.69	1.92	2.21	2.38
x1 = 0.3995	1.76	2	2.3	2.47
x1 = 0.45	1.81	2.04	2.34	2.51
x1 = 0.5008	1.82	2.05	2.35	2.52
x1 = 0.5498	1.81	2.04	2.31	2.45
x1 = 0.6007	1.78	1.99	2.23	2.36
x1 = 0.6495	1.72	1.91	2.12	2.23
x1 = 0.7	1.62	1.79	1.97	2.04
x1 = 0.8001	1.31	1.41	1.51	1.55
x1 = 0.9003	0.778	0.803	0.849	0.861

COC(=O)CC(C)=O [methyl 3-oxobutanoate] + CCO
excess molar enthalpy [kJ/mol], [2]
Conditions	288.2 K	298.2 K	313.2 K	328.2 K
x1 = 0.1003	0.733	0.786	0.878	0.952
x1 = 0.2002	1.16	1.27	1.44	1.55
x1 = 0.2995	1.42	1.58	1.77	1.89
x1 = 0.3494	1.51	1.67	1.89	2
x1 = 0.3995	1.57	1.74	1.97	2.1
x1 = 0.4495	1.61	1.78	2.01	2.13
x1 = 0.5008	1.62	1.79	2.01	2.13
x1 = 0.5497	1.61	1.77	1.99	2.1
x1 = 0.5995	1.57	1.73	1.93	2.02
x1 = 0.65	1.5	1.65	1.84	1.91
x1 = 0.7011	1.41	1.53	1.7	1.75
x1 = 0.7996	1.12	1.2	1.31	1.33
x1 = 0.9006	0.647	0.686	0.725	0.728

COC(=O)CC(C)=O [methyl 3-oxobutanoate] + CO
excess molar enthalpy [kJ/mol], [2]
Conditions	288.2 K	298.2 K	313.2 K	328.2 K
x1 = 0.1004	0.533	0.567	0.619	0.664
x1 = 0.2001	0.875	0.93	1.03	1.09
x1 = 0.3	1.1	1.17	1.28	1.38
x1 = 0.3506	1.17	1.25	1.37	1.47
x1 = 0.4003	1.22	1.29	1.42	1.52
x1 = 0.4497	1.25	1.32	1.45	1.55
x1 = 0.5001	1.26	1.34	1.46	1.55
x1 = 0.551	1.25	1.31	1.45	1.53
x1 = 0.5993	1.21	1.29	1.4	1.48
x1 = 0.6492	1.16	1.22	1.32	1.39
x1 = 0.7004	1.08	1.14	1.22	1.28
x1 = 0.7993	0.847	0.878	0.929	0.973
x1 = 0.8988	0.494	0.49	0.521	0.539
